Measured values taken from publication PMC6494957 (Frontiers in Microbiology, 2019).
Converted amounts (≈) assume the structure as drawn. Positions of bridges follow the written chain, without caps; N, C: chain ends. Non-standard residues stand in square brackets, D forms with d. Residues, ends and D or L forms follow the SMILES beside them. Dab = NCC[C@H](N)C(=O)O

Legend:
K. pneumoniae ATCC 13883 = experiment: microbe, parasite or virus in culture
Protocol: (§1) The MIC for ampicillin or gentamicin against each isolate was determined for each test to serve as an internal quality control. The MICs of isolates were determined by visual reading and using an EnSpire Multimode Plate Reader 2300 atA600nm.
(§2) Briefly, antimicrobial stock solutions for robenidine and PMBN were prepared at a concentration of 12.8 mg/ml in DMSO. […] A 1 μl aliquot of the first compound from each combination was dispensed along the abscissa (from row A to G) of the 96-well microplate, while the second compound was dispensed along the ordinate (from column 12 to column 3) using an electronic multichannel pipette followed by 89 μl of LB broth. Each well of the plate was inoculated with an aliquot of 10 μl bacterial suspension at a concentration of 1-5 × 10^6 colony forming units (CFU) per ml. Subsequently, the plate was incubated at 37°C for 24 h. The fractional inhibitory concentration index (FICI) described the results of the combinations, and was calculated utilizing the following formula:
(§3) DRI = MIC of drug alone/MIC of drug in combination

P. putida ATCC 17428 = experiment: microbe, parasite or virus in culture
Protocol: as §1, §2, §3

[1] = system: A. calcoaceticus (human clinical isolate); experiment: microbe, parasite or virus in culture
Protocol: as §1, §2, §3

A. baumannii ATCC 12457 = experiment: microbe, parasite or virus in culture
Protocol: as §1, §2, §3

P. mirabilis ATCC 43071 = experiment: microbe, parasite or virus in culture; details: ATCC 43071, 24 h
Protocol: as §1, §2, §3

P. aeruginosa ATCC 27853 = experiment: microbe, parasite or virus in culture; details: for MIC: Pseudomonas aeruginosa, ATCC27853, read-out: MIC, single drug
Protocol: as §1, §2, §3

E. coli ATCC 11229 = experiment: microbe, parasite or virus in culture
Protocol: as §1, §2, §3

A. baumannii ATCC 19606 = experiment: microbe, parasite or virus in culture
Protocol: as §1, §2, §3

E. coli ATCC 25922 = experiment: microbe, parasite or virus in culture; details: for MIC: Escherichia coli, ATCC25922, read-out: MIC, single drug
Protocol: as §1, §2, §3

[2] = system: all the cell lines tested (HaCaT, HEK 293, MDCK); experiment: cells; details: 24 h
Protocol: Cells were maintained in Dulbecco’s modified Eagle’s medium (DMEM) with 10% fetal bovine serum (FBS) and 1% PenStrep (100 U/mL Penicillin and 100 μg/mL Streptomycin) at 37°C with 5% CO2. Cells were serially passaged at ∼80% confluence ∼ every 4 days. Assays were performed in duplicate in 96 well plates seeded with ∼25,000 cells per well. […] Briefly, the antimicrobials were prepared by performing a twofold serial dilution at 100× of tested concentration in DMSO. Subsequently, a 1 μl aliquot of each concentration was transferred to a sterile 96-well plate containing fresh DMEM with either 10% FBS. After mixing four times, the media aliquots with different concentrations of antimicrobial were transferred to each well of the 96-well plate seeded with cells, using wells containing 1–2% DMSO only as control. To determine the effect of FBS on the cytotoxicity of each compound, DMEM with 40% FBS containing different concentrations of antimicrobial was prepared as described above. After 24 h of exposure, WST-1 reagent (Cell Proliferation Assay reagent, Roche) at a concentration of 10% was added to each well. Absorbance at A450 nm on a Multiskan Ascent 354 Spectrophotometer (Labsystems) was measured after 1 h of incubation. The IC50 value was determined for each compound against each cell line via non-linear regression (three parameters) using GraphPad Prism v6 software.

[3] = system: Gram-negative control strains; experiment: Checkerboard, summary over Gram-negative strains; format: cell-based; details: in combination with robenidine; for P. aeruginosa
Protocol: as §2, §3

S. aureus ATCC 29213 = experiment: MIC broth microdilution, quality control strain; format: cell-based; details: Staphylococcus aureus, ATCC29213; S. aureus ATCC 29213, quality control strain
Protocol: (§4) Luria Bertani (LB) broth (Oxoid, Australia) was applied for MIC testing in lieu of cation-adjusted Mueller–Hinton broth as robenidine has been previously shown to chelate calcium ions. Furthermore, a twofold serial dilution of robenidine was performed in 100% DMSO, with 1 μl dispensed to each well due to the hydrophobicity of the compound ([Abraham et al., 2016]). The MIC for ampicillin or gentamicin against each isolate was determined for each test to serve as an internal quality control. The MICs of isolates were determined by visual reading and using an EnSpire Multimode Plate Reader 2300 atA600nm.

[4] = system: P. mirabilis (n = 21) clinical isolates from otitis externa cases in dogs; experiment: MIC/MBC and checkerboard, canine otitis externa isolates; format: cell-based, Proteus mirabilis; details: canine otitis externa; for MIC50 / MIC90: Proteus mirabilis; for MIC50: read-out: MIC50, single drug; for MIC90: read-out: MIC90, single drug
Description: (§5) Escherichia coli ATCC 25922, E. coli ATCC 11229, P. aeruginosa ATCC 27853, P. aeruginosa PA01, Pseudomonas putida ATCC 17428, P. mirabilis ATCC 43071, K. pneumoniae ATCC 13883, A. baumannii ATCC 19606, and A. baumannii ATCC 12457 were used for preliminary susceptibility testing and combination experiments. S. aureus ATCC 29213 and S. pneumoniae ATCC 49619 were used as internal quality controls. A variety of bacterial organisms from both human and canine infections were investigated in this study (n = 119 isolates in total). Twenty-eight clinical Acinetobacter spp. isolates were obtained from cases of human skin and soft tissue infections, including 18 Acinetobacter baumannii and 10 A. calcoaceticus, kindly provided by a person (Institute of Medical and Veterinary Science, South Australia). […] Ninety-one clinical isolates were obtained from cases of canine otitis externa, including seven methicillin-susceptible S. pseudintermedius (MSSP), 13 multidrug- and methicillin-resistant S. pseudintermedius (MRSP) ([Saputra et al., 2017]), 20 beta-haemolytic Streptococcus spp., 30 P. aeruginosa (10 of them resistant to gentamicin and 21 P. mirabilis isolates). These isolates were obtained from the bacterial collection of the national survey of antimicrobial resistance in animals conducted in Australia. Swab samples from dogs with signs of otitis externa were collected by veterinarians and submitted to government, private or university diagnostic laboratories throughout Australia. After routine bacterial identification and the removal of confidential information, the participating veterinary diagnostic laboratories submitted the bacteria and their clinical information to PC2 Laboratories, Australian Centre for Antimicrobial Resistance Ecology, School of Animal and Veterinary Sciences, University of Adelaide, Roseworthy Campus, Roseworthy, SA, Australia, for further study. Thus, animal ethics approval was not required in this study. These organisms were identified to species level using biochemical testing and MALDI-TOF mass spectrometry (Bruker, Preston, VIC, Australia).
as §1
(§6) Briefly, 10 μl aliquots from each duplicate well from the MIC assays (starting from the MIC for each compound) were inoculated onto a sheep blood agar (SBA) plate and incubated at 37°C.
as §2, §3

[5] = system: S. pseudintermedius (n = 20) clinical isolates from otitis externa cases in dogs; experiment: as above; format: cell-based, Staphylococcus pseudintermedius; details: canine otitis externa; for MIC50 / MIC90: Staphylococcus pseudintermedius; for MIC50: read-out: MIC50, single drug; for MIC90: read-out: MIC90, single drug
Description: as §5, §1, §6, §2, §3

[6] = system: Beta-haemolytic streptococci (n = 20) clinical isolates from otitis externa cases in dogs; experiment: as above; format: cell-based, beta-haemolytic Streptococcus spp.; details: canine otitis externa; for MIC50 / MIC90: Streptococcus; for MIC50: read-out: MIC50, single drug; for MIC90: read-out: MIC90, single drug
Description: as §5, §1, §6, §2, §3

[7] = system: P. aeruginosa (n = 30) clinical isolates from otitis externa cases in dogs; experiment: as above; format: cell-based, Pseudomonas aeruginosa; details: canine otitis externa; for MIC50 / MIC90: Pseudomonas aeruginosa; for MIC50: read-out: MIC50, single drug; for MIC90: read-out: MIC90, single drug
Description: as §5, §1, §6, §2, §3

S. pneumoniae ATCC 49619 = experiment: MIC broth microdilution, quality control strain; format: cell-based; details: Streptococcus pneumoniae, ATCC49619; S. pneumoniae ATCC 49619, quality control strain
Protocol: as §4

CC(C)C[C@@H]1NC(=O)[C@@H](Cc2ccccc2)NC(=O)[C@H](CCN)NC(=O)[C@@H](NC(=O)[C@H](CCN)NC(=O)[C@@H](N)[C@@H](C)O)CCNC(=O)[C@H]([C@@H](C)O)NC(=O)[C@H](CCN)NC(=O)[C@H](CCN)NC1=O [PMBN, polymyxin B nonapeptide] (H-T[Dab][Dab][Dab][dF]L[Dab][Dab]T; lactam 3-C; N-terminus assumed)
MIC, single drug (K. pneumoniae ATCC 13883; ATCC 13883, 24 h): >32 µg/mL | MIC in combination PMBN:ROB (K. pneumoniae ATCC 13883; K. pneumoniae ATCC 13883, concentration of the labelled component): 0.5 µg/mL | MIC, single drug (P. putida ATCC 17428; ATCC 17428, 24 h): 4 µg/mL | MIC in combination PMBN:ROB (P. putida ATCC 17428; P. putida ATCC 17428, concentration of the labelled component): 1:1 μg/ml | MIC, single drug ([1]; 24 h): >32 µg/mL | MIC in combination PMBN:ROB ([1]; A. calcoaceticus human clinical isolate, concentration of the labelled component): 1.5 µg/mL | MIC in combination PMBN:ROB (A. baumannii ATCC 12457; A. baumannii ATCC 12457, concentration of the labelled component): 1 µg/mL | MIC, single drug (A. baumannii ATCC 12457; ATCC 12457, 24 h): >32 µg/mL | MIC, single drug (P. mirabilis ATCC 43071): >32 µg/mL | MIC, single drug (P. aeruginosa ATCC 27853; ATCC 27853, 24 h): 2 µg/mL | MIC in combination PMBN:ROB (P. aeruginosa ATCC 27853; P. aeruginosa ATCC 27853, concentration of the labelled component): 0.75 µg/mL | MIC, single drug (E. coli ATCC 11229; ATCC 11229, 24 h): >32 µg/mL | MIC in combination PMBN:ROB (E. coli ATCC 11229; E. coli ATCC 11229, concentration of the labelled component): 6 µg/mL | MIC in combination PMBN:ROB (A. baumannii ATCC 19606; A. baumannii ATCC 19606, concentration of the labelled component): 1 µg/mL | MIC, single drug (A. baumannii ATCC 19606; ATCC 19606, 24 h): >32 µg/mL | MIC, single drug (E. coli ATCC 25922; ATCC 25922, 24 h): >32 µg/mL | MIC in combination PMBN:ROB (E. coli ATCC 25922; E. coli ATCC 25922, concentration of the labelled component): 6 µg/mL | IC50 [2]: > 32 µg/mL | fold reduction of the MIC of PMBN [3]: 4- to 64 fold

CNC(C)C1CCC(N)C(OC2C(N)CC(N)C(OC3OCC(C)(O)C(NC)C3O)C2O)O1 (stereo not drawn) [Gentamicin, gentamicin]
MIC (S. aureus ATCC 29213): 0.5 µg/mL (≈ 1.05 µM) | MIC50 [4]: 8 µg/mL | MIC90 [4]: 32 µg/mL | MIC (P. aeruginosa ATCC 27853): 2 µg/mL | MIC (E. coli ATCC 25922): 0.5 µg/mL | MIC50 [5]: 2 µg/mL | MIC90 [5]: 2 µg/mL | MIC range, single drug [5]: 1 to 64 µg/mL | MIC50 [6]: 8 µg/mL | MIC90 [6]: 8 µg/mL | MIC range, single drug [6]: 8 to 16 µg/mL | MIC50 [7]: 32 µg/mL | MIC90 [7]: 64 µg/mL | MIC range, single drug [7]: 0.25 to 64 µg/mL

CC1(C)S[C@@H]2[C@H](NC(=O)[C@H](N)c3ccccc3)C(=O)N2[C@H]1C(=O)O [Ampicillin, ampicillin]
MIC (S. aureus ATCC 29213): 1 µg/mL (≈ 2.86 µM) | MIC (S. pneumoniae ATCC 49619): 0.125 µg/mL (≈ 0.358 µM) | MIC (E. coli ATCC 25922): 4 µg/mL | MIC50 [5]: 0.125 µg/mL | MIC90 [5]: 8 µg/mL | MIC range, single drug [5]: 0.03 to 32 µg/mL | MIC50 [6]: 0.125 µg/mL | MIC90 [6]: 0.25 µg/mL | MIC range, single drug [6]: 0.06 to 0.5 µg/mL

CN[C@@H]1[C@@H](O[C@H]2O[C@H](CO)[C@@H](N)[C@H](O)[C@H]2O)OC2C[C@@H](N)[C@@H](O[C@H]3[C@H](O)[C@@H](O)[C@H](N)C[C@@H]3N)OC2[C@@H]1O (stereo partly drawn) [Apramycin, apramycin]
MIC (S. aureus ATCC 29213): 4 µg/mL (≈ 7.41 µM) | MIC50 [4]: 32 µg/mL | MIC90 [4]: 64 µg/mL | MIC range, single drug [4]: 16 to 64 µg/mL | MIC (P. aeruginosa ATCC 27853): 16 µg/mL | MIC (E. coli ATCC 25922): 8 µg/mL | MIC50 [5]: 8 µg/mL | MIC90 [5]: 16 µg/mL | MIC range, single drug [5]: 1 to 16 µg/mL | MIC50 [6]: 64 µg/mL | MIC90 [6]: 128 µg/mL | MIC range, single drug [6]: 4 to 128 µg/mL | MIC50 [7]: 32 µg/mL | MIC90 [7]: 64 µg/mL | MIC range, single drug [7]: 16 to 64 µg/mL
